Where “and” joins values, the source holds several entries; their conditions need not be identical. Equal entries are not always repeated. Where two headings read alike, the source gives them in different places.
Columns and labels:
[1] = molecular target: FGFR4 (GST-FGFR4(388-802)) (Homo sapiens (Human), UniProt P22455); assay: In-vitro biochemical kinase assay for FGFR4 (Caliper microfluidic mobility shift)
Tel-FGFR4 = Tel-FGFR4 (Homo sapiens (Human), UniProt P22455); assay: In vitro cellular kinase assay for FGFR4 (BaF3-Tel-FGFR4 cells, MSD capture ELISA of tyrosine phosphorylation); type: cell-based
Chain of Tel-FGFR4 (P22455 other isoform, or with tags, fused parts or gaps): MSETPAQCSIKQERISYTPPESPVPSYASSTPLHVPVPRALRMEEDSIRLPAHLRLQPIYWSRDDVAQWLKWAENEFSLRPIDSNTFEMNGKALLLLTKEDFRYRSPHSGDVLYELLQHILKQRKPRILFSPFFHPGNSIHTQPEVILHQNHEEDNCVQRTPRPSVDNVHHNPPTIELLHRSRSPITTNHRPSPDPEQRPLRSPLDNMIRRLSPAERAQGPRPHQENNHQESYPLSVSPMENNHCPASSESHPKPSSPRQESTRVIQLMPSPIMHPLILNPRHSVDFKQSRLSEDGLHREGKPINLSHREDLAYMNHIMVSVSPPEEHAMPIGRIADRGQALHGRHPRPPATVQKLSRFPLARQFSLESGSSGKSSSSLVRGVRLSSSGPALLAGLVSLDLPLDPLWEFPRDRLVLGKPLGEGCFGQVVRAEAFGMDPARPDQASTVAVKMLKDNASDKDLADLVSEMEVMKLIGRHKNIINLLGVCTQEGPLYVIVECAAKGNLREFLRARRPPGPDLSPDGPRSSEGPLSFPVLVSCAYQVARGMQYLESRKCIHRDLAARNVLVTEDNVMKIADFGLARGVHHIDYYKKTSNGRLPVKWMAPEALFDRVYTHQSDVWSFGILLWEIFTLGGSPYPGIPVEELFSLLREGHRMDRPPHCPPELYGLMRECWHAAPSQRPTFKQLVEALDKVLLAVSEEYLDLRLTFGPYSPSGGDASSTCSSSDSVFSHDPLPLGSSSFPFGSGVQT

[2] = biochemical FGFR4 assay, read-out: Biochemical IC50
[3] = Cellular BaF3 FGFR4 assay, read-out: Cellular IC50
[4] = read-out: Biochemical FGFR4 IC50
[5] = BaF3-Tel-FGFR4 cells, 1 hour incubation, read-out: Cellular BaF3 FGFR4 IC50

Chain of FGFR4 (GST-FGFR4(388-802)) (P22455 388-802): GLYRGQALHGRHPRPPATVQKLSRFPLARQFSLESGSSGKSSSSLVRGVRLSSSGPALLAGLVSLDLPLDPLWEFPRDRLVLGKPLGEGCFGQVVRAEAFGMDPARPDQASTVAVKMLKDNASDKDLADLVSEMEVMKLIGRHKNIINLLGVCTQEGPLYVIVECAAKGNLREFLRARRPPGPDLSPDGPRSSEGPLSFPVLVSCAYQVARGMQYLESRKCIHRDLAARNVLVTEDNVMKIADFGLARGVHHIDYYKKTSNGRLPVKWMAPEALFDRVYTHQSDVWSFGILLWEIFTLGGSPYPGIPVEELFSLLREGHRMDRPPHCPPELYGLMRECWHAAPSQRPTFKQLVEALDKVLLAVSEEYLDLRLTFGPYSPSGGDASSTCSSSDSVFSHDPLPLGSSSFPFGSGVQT

IC50 [1, 2] [nM] | IC50 (Tel-FGFR4; [3]) [nM] | IC50 (Tel-FGFR4; measured and considered as outlier values, not included in the table or list, read-out: IC50 in the cellular BaF3 FGFR4 assay, outlier values) [nM] | SMILES | IC50 [1, 4] [nM] | IC50 (Tel-FGFR4; [5])
1.2 | 12.5 | – | CC(C)Oc1cc(NC(=O)N2CCCc3cc(CN(C)C(=O)C(C)C)c(C=O)nc32)ncc1C#N [N-(5-cyano-4-isopropoxypyridin-2-yl)-7-formyl-6-((N-methylisobutyramido)methyl)-3,4-dihydro-1,8-naphthyridine-1(2H)-carboxamide] | – | –
2 | 8.6 | – | CC(C)Nc1cc(NC(=O)N2CCCc3cc(CO)c(C=O)nc32)ncc1C#N [N-(5-cyano-4-(isopropylamino)pyridin-2-yl)-7-formyl-6-(hydroxymethyl)-3,4-dihydro-1,8-naphthyridine-1(2H)-carboxamide] | – | –
– | – | – | N#Cc1cnc(NC(=O)N2CCCc3ccc(C=O)nc32)cc1C1=CCOCC1 [Example 30, N-(5-cyano-4-(3,6-dihydro-2H-pyran-4-yl)pyridin-2-yl)-7-formyl-3,4-dihydro-1,8-naphthyridine-1(2H)-carboxamide] | 5.5 | 428 nM
2.6 | 21 | – | CC(=O)N(C)Cc1cc2c(nc1C=O)N(C(=O)Nc1cc(NCC3CN(C)CCO3)c(C#N)cn1)CCC2 (stereo not drawn) [N-(5-cyano-4-(((4-methylmorpholin-2-yl)methyl)amino)pyridin-2-yl)-7-formyl-6-((N-methylacetamido)methyl)-3,4-dihydro-1,8-naphthyridine-1(2H)-carboxamide] | – | –
3.7 | 7.9 | – | N#Cc1cnc(NC(=O)N2CCCc3cc(CN4CC[C@@H](O)C4=O)c(C=O)nc32)cc1OCC(F)F [(R)-N-(5-cyano-4-(2,2-difluoroethoxyl)pyridin-2-yl)-7-formyl-6-((3-hydroxy-2-oxopyrrolidin-1-yl)methyl)-3,4-dihydro-1,8-naphthyridine-1(2H)-carboxamide] | – | –
2.1 | 9.9 | – | CC(C)Oc1cc(NC(=O)N2CCCc3cc(CN4CCNCC4=O)c(C=O)nc32)ncc1C#N [N-(5-cyano-4-isopropoxypyridin-2-yl)-7-formyl-6-((2-oxopiperazin-1-yl)methyl)-3,4-dihydro-1,8-naphthyridine-1(2H)-carboxamide] | – | –
1.1 | 3.6 | – | COCCNc1cc(NC(=O)N2CCCc3cc(CN4CCCC4=O)c(C=O)nc32)ncc1C#N [N-(5-cyano-4-((2-methoxyethyl)amino)pyridin-2-yl)-7-formyl-6-((2-oxopyrrolidin-1-yl)methyl)-3,4-dihydro-1,8-naphthyridine-1(2H)-carboxamide] | – | –
49 | 75 | – | COc1nc(NC(=O)N2CCCc3cc(CN4CCN(C)CC4=O)c(C=O)nc32)ncc1C#N [N-(5-cyano-4-methoxypyrimidin-2-yl)-7-formyl-6-((4-methyl-2-oxopiperazin-1-yl)methyl)-3,4-dihydro-1,8-naphthyridine-1(2H)-carboxamide] | – | –
1.9 | 4.9 | – | COC[C@H](C)Nc1cc(NC(=O)N2CCCc3cc(CN4CCCC4=O)c(C=O)nc32)ncc1C#N [(S)-N-(5-cyano-4-((1-methoxypropan-2-yl)amino)pyridin-2-yl)-7-formyl-6-((2-oxopyrrolidin-1-yl)methyl)-3,4-dihydro-1,8-naphthyridine-1(2H)-carboxamide] | – | –
– | – | – | CC(C)Oc1cc(NC(=O)N2CCCc3cc(CN4CCN(C)CC4=O)c(C=O)nc32)ncc1C#N [Example 92, N-(5-cyano-4-isopropoxypyridin-2-yl)-7-formyl-6-((4-methyl-2-oxopiperazin-1-yl)methyl)-3,4-dihydro-1,8-naphthyridine-1(2H)-carboxamide] | 0.7 | 3.3 nM
3.4 | 12 | – | CCNc1cc(NC(=O)N2CCCc3cc(CN4CCN(C)CC4=O)c(C=O)nc32)ncc1C#N [N-(5-cyano-4-(ethylamino)pyridin-2-yl)-7-formyl-6-((4-methyl-2-oxopiperazin-1-yl)methyl)-3,4-dihydro-1,8-naphthyridine-1(2H)-carboxamide] | – | –
0.9 | 328 | – | CC(C)Oc1cc(NC(=O)N2c3nc(C=O)ccc3CCC2C)ncc1C#N (stereo not drawn) [N-(5-cyano-4-isopropoxypyridin-2-yl)-7-formyl-2-methyl-3,4-dihydro-1,8-naphthyridine-1(2H)-carboxamide] | – | –
0.9 | 18.5 | > 3000 | CCC(=O)N(C)Cc1cc2c(nc1C=O)N(C(=O)Nc1cc(OC(C)C)c(C#N)cn1)CCC2 [N-(5-cyano-4-isopropoxypyridin-2-yl)-7-formyl-6-((N-methylpropionamido)methyl)-3,4-dihydro-1,8-naphthyridine-1(2H)-carboxamide] | – | –
– | – | – | O=Cc1nc2c(cc1CO)CCCN2C(=O)Nc1ccc(F)cn1 [Example 76, N-(5-fluoropyridin-2-yl)-7-formyl-6-(hydroxymethyl)-3,4-dihydro-1,8-naphthyridine-1(2H)-carboxamide] | 620 | 1610 nM and > 3000 nM
– | – | – | N#Cc1cnc(NC(=O)N2CCCc3ccc(C=O)nc32)cc1Cl [Example 24, N-(4-chloro-5-cyanopyridin-2-yl)-7-formyl-3,4-dihydro-1,8-naphthyridine-1(2H)-carboxamide] | 24 | > 3000 nM
0.6 | 4 | – | CCC(=O)N(C)Cc1cc2c(nc1C=O)N(C(=O)Nc1cc(NCCOC)c(C#N)cn1)CCC2 [N-(5-cyano-4-((2-methoxyethyl)amino)pyridin-2-yl)-7-formyl-6-((N-methylpropionamido)methyl)-3,4-dihydro-1,8-naphthyridine-1(2H)-carboxamide] | – | –
– | – | – | O=Cc1nc2c(cc1CO)CCCN2C(=O)Nc1ncc(Cl)c(O[C@H]2CCOC2)n1 [Example 69, (S)-N-(5-chloro-4-((tetrahydrofuran-3-yl)oxy)pyrimidin-2-yl)-7-formyl-6-(hydroxymethyl)-3,4-dihydro-1,8-naphthyridine-1(2H)-carboxamide] | 54 | 95 nM
0.6 | 5.8 | – | COCCNc1cc(NC(=O)N2CCCc3cc(CN4C[C@@H](N(C)C)CC4=O)c(C=O)nc32)ncc1C#N [(S)-N-(5-cyano-4-((2-methoxyethyl)amino)pyridin-2-yl)-6-((4-(dimethylamino)-2-oxopyrrolidin-1-yl)methyl)-7-formyl-3,4-dihydro-1,8-naphthyridine-1(2H)-carboxamide] | – | –
1.2 | 6.7 | – | CN1CCN(Cc2cc3c(nc2C=O)N(C(=O)Nc2cc(OCC(F)F)c(C#N)cn2)CCC3)C(=O)C1 [N-(5-cyano-4-(2,2-difluoroethoxyl)pyridin-2-yl)-7-formyl-6-((4-methyl-2-oxopiperazin-1-yl)methyl)-3,4-dihydro-1,8-naphthyridine-1(2H)-carboxamide] | – | –
5.9 | 37 | – | COC(C)(C)CNc1cc(NC(=O)N2CCCc3cc(C(F)F)c(C=O)nc32)ncc1C#N [N-(5-cyano-4-((2-methoxy-2-methylpropyl)amino)pyridin-2-yl)-6-(difluoromethyl)-7-formyl-3,4-dihydro-1,8-naphthyridine-1(2H)-carboxamide] | – | –
– | – | – | CC(=O)N(C)Cc1cc2c(nc1C=O)N(C(=O)Nc1cc(SC(C)C)c(C#N)cn1)CCC2 [Example 240, N-(5-cyano-4-(isopropylthio)pyridin-2-yl)-7-formyl-6-((N-methylacetamido)methyl)-3,4-dihydro-1,8-naphthyridine-1(2H)-carboxamide] | < 0.1 | 11.1 nM
4.6 | 7.6 | – | COC[C@H](C)Oc1cc(NC(=O)N2CCCc3cc(CN4CCCC4=O)c(C=O)nc32)ncc1C#N [(S)-N-(5-cyano-4-((1-methoxypropan-2-yl)oxy)pyridin-2-yl)-7-formyl-6-((2-oxopyrrolidin-1-yl)methyl)-3,4-dihydro-1,8-naphthyridine-1(2H)-carboxamide] | – | –
– | – | – | N#Cc1cnc(NC(=O)N2CCCc3cc(CO)c(C=O)nc32)cc1OCC(F)(F)F [Example 89, N-(5-cyano-4-(2,2,2-trifluoroethoxyl)pyridin-2-yl)-7-formyl-6-(hydroxymethyl)-3,4-dihydro-1,8-naphthyridine-1(2H)-carboxamide] | 8.9 | 14.5 nM
– | – | – | CN1CCC2(CCN(c3cc(NC(=O)N4CCCc5cc(CO)c(C=O)nc54)ncc3C#N)CC2)C1 [Example 45, N-(5-cyano-4-(2-methyl-2,8-diazaspiro[4.5]decan-8-yl)pyridin-2-yl)-7-formyl-6-(hydroxymethyl)-3,4-dihydro-1,8-naphthyridine-1(2H)-carboxamide] | 21 | 67 nM
1.6 | 3.9 | – | COCCNc1cc(NC(=O)N2CCCc3cc(CN4CC[C@@H](N(C)C)C4=O)c(C=O)nc32)ncc1C#N [(R)-N-(5-cyano-4-((2-methoxyethyl)amino)pyridin-2-yl)-6-((3-(dimethylamino)-2-oxopyrrolidin-1-yl)methyl)-7-formyl-3,4-dihydro-1,8-naphthyridine-1(2H)-carboxamide] | – | –
0.3 | 2.3 | – | COC[C@@H](C)Oc1cc(NC(=O)N2CCCc3cc(CN4CCCC4=O)c(C=O)nc32)ncc1C#N [(R)-N-(5-cyano-4-((1-methoxypropan-2-yl)oxy)pyridin-2-yl)-7-formyl-6-((2-oxopyrrolidin-1-yl)methyl)-3,4-dihydro-1,8-naphthyridine-1(2H)-carboxamide] | – | –
12 | 13 | – | CCN(Cc1cc2c(nc1C=O)N(C(=O)Nc1cc(NC)c(C#N)cn1)CCC2)C(=O)CN(C)C [N-(5-cyano-4-(methylamino)pyridin-2-yl)-6-((2-(dimethylamino)-N-ethylacetamido)methyl)-7-formyl-3,4-dihydro-1,8-naphthyridine-1(2H)-carboxamide] | – | –

SMILES | IC50 [1, 2] [nM] | IC50 (Tel-FGFR4; [3]) [nM] | IC50 (Tel-FGFR4; measured and considered as outlier values, not included in the table or list, read-out: IC50 in the cellular BaF3 FGFR4 assay, outlier values) [nM] | IC50 [1, 4] [nM] | IC50 (Tel-FGFR4; [5])
CC(C)COc1cc(NC(=O)N2CCCc3cc(C(F)F)c(C=O)nc32)ncc1C#N [N-(5-cyano-4-isobutoxypyridin-2-yl)-6-(difluoromethyl)-7-formyl-3,4-dihydro-1,8-naphthyridine-1(2H)-carboxamide] | 30 | 139 | – | – | –

Reference: patent US9266883B2, “Ring-fused bicyclic pyridyl derivatives as FGFR4 inhibitors” (Novartis AG, priority 2013, dated 2016)
